We go through one molecule from patent US20090170897A1, “Method of Treating Neuropathic Pain” (Pfizer, Inc., priority 2004, published 2009).

Molecules are shown by their SMILES.

As a reminder, the IC50 is the concentration that inhibits the measured activity by half. High values mean a need for much substance, low ones inhibition by little substance.

One data set deals with T1, CRTH2 receptor (Rattus norvegicus, UniProt Q6XKD3).
T1 sequence (Q6XKD3 1-403): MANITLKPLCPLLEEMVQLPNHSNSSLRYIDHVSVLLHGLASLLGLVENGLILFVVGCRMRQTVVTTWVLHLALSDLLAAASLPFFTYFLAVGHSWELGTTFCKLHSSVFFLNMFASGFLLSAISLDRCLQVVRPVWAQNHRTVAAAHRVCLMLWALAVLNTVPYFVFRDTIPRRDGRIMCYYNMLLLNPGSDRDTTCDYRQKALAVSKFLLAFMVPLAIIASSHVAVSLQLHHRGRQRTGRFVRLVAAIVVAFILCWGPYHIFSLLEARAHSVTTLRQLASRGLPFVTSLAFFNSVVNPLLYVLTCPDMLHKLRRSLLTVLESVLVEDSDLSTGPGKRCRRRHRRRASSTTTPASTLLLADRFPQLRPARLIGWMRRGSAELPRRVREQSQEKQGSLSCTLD
The experiment in a line: IC50 at rat CRTH2 receptor (rIC50).

Data set [1] deals with Chronic Constriction Injury (CCI) rat model of neuropathic pain. The experiment in a line: CCI-induced dynamic allodynia (cotton bud, PWL). Format: in vivo. As to the method:
(§1) Male Sprague Dawley rats weighing 150-400 g obtained from Charles River (Manston, Kent, UK.) were housed in groups of 3. All animals were kept under a 12 h light/dark cycle (lights on at 07 h 00 min) with food and water ad libitum. All experiments were carried out by an observer blind to the treatments and in accordance with the Home Office Animals (Scientific Procedures) Act 1986.
The CCI of sciatic nerve was performed as previously described by Bennett and Xie (Bennett G J, Xie Y K. A peripheral mononeuropathy in rat that produces disorders of pain sensation like those seen in man. Pain:33:87-107, 1988). Animals were anaesthetised with a 2% isofluorane/O2 mixture. The right hind thigh was shaved and swabbed with 1% iodine. Animals were then transferred to a homeothermic blanket for the duration of the procedure and anaesthesia maintained during surgery via a nose cone. The skin was cut along the line of the thighbone. The common sciatic nerve was exposed at the middle of the thigh by blunt dissection through biceps femoris. About 7 mm of nerve was freed proximal to the sciatic trifurcation, by inserting forceps under the nerve and the nerve gently lifted out of the thigh. Suture was pulled under the nerve using forceps and tied in a simple knot until slight resistance was felt and then double knotted. The procedure was repeated until 4 ligatures (4-0 silk) were tied loosely around the nerve with approx 1 mm spacing. The incision was closed in layers.
Dynamic allodynia was assessed by lightly stroking the plantar surface of the hind paw with a cotton bud. To avoid recording general motor activity, care was taken to perform this procedure in fully habituated rats that were not active. At least two measurements were taken at each time point, the mean of which represented the paw withdrawal latency (PWL). […] A pain withdrawal response was often accompanied with repeated flinching or licking of the paw. Dynamic allodynia was considered to be present if animals responded to the cotton stimulus within 8 sec of commencing stroking (Field et al, 1999).
(§2) All the experiments were conducted blind. Static allodynia was expressed as median [LQ; UQ] and analysed by Mann Whitney U test. Dynamic allodynia and thermal hyperalgesia were expressed as arithmetic mean±SEM and analysed by ANOVA.

The nature of data set [2]: compound level in rat CSF after oral administration. Format: in vivo. As to the method: Moreover the antagonist produced a long lasting anti-hyperalgesic effect in the CITH rat model. N-cyclopropyl-N-[2-methyl-1-(pyridine-3-carbonyl)-1,2,3,4-tetrahydro-quinolin-4-yl]-acetamide was dosed in the rat blood and CSF at various time points after oral administration.
The subject of data set [3] is Streptozocin (STZ)-induced diabetes neuropathy in the rat. Description: STZ-induced static allodynia (von Frey hairs, PWT). Format: in vivo. As to the method:
as §1
Diabetes was induced by a single intraperitoneal injection of streptozotocin (50 mg/kg) freshly dissolved in 0.9% sterile saline. Streptozotocin injection induces a reproducible mechanical allodynia within 3 weeks, lasting for at least 7 weeks (Chen and Pan, (Chen S R and Pan H L. Hypersensitivity of Spinothalamic Tract Neurons Associated With Diabetic Neuropathic Pain in Rats. J Neurophysiol 87: 2726-2733, 2002).
Animals were habituated to wire bottom test cages prior to the assessment of allodynia. Static allodynia was evaluated by application of von Frey hairs (Stoelting, Wood Dale, Ill., USA.) in ascending order of force (0.6, 1, 1.4, 2, 4, 6, 8, 10, 15 and 26 grams) to the plantar surface of hind paws. Each von Frey hair was applied to the paw for a maximum of 6 sec, or until a withdrawal response occurred. Once a withdrawal response to a von Frey hair was established, the paw was re-tested, starting with the filament below the one that produced a withdrawal, and subsequently with the remaining filaments in descending force sequence until no withdrawal occurred. The highest force of 26 g lifted the paw as well as eliciting a response, thus represented the cut off point. Each animal had both hind paws tested in this manner. The lowest amount of force required to elicit a response was recorded as paw withdrawal threshold (PWT) in grams. Static allodynia was defined as present if animals responded to a stimulus of, or less than, 4 g, which is innocuous in naive rats (Field M J, Bramwell S, Hughes J, Singh L. Detection of static and dynamic components of mechanical allodynia in rat models of neuropathic pain: are they signalled by distinct primary sensory neurones? Pain, 1999; 83:303-11).
as §2

As to `CC(=O)N(C1CC1)C1CC(C)N(C(=O)c2cccnc2)c2ccccc21` (centres unmarked) [N-cyclopropyl-N-[2-methyl-1-(pyridine-3-carbonyl)-1,2,3,4-tetrahydro-quinolin-4-yl]-acetamide], at CRTH2 receptor, it took 0.045 µM to reach half-maximal inhibition (IC50). Moreover, the “time of peak effect, dynamic allodynia” value in data set [1] (25 mg/kg PO (MED), post administration) came out at 1 h. Also, in data set [1] (12.5, 25 and 50 mg/kg PO, from 14 days post surgery), the “effect on maintenance of CCI-induced dynamic allodynia” value is “reversed the maintenance of CCI-induced static and dynamic allodynia in a dose dependent manner”. The “MED, dynamic allodynia” value in data set [1] (PO) was 25 mg/kg. Moreover, the “dynamic allodynia effect relative to gabapentin” value in data set [1] (highest dose (50 mg/kg PO) vs gabapentin 100 mg/kg PO) is “less potent but significantly different from vehicle treated CCI rats”. In addition, in data set [1] (highest dose (50 mg/kg PO), 2 hrs post administration, vehicle 3.5±0.7), the “dynamic allodynia paw withdrawal latency (mean±SEM)” value was 11.8±1.0. In addition, the “onset of anti-allodynic effect, dynamic allodynia” value in data set [1] (highest dose (50 mg/kg PO), post dose, p<0.01 vs vehicle) was determined as 30 min. In addition, the “blood brain barrier penetration” value in data set [2] is given as “appears to cross the blood brain barrier”. Also, in data set [3] (25 mg/kg PO), the “duration of biologically relevant effect, STZ static allodynia” value was “up to 2 hr”. In addition, the “time of peak effect, STZ static allodynia” value in data set [3] (25 mg/kg PO, post compound dose) came out at 1 h. Besides, the “effect on maintenance of STZ-induced static allodynia” value in data set [3] (compound 25 mg/kg PO, gabapentin 100 mg/kg PO (positive control)) was “reversed”.
